# Key:
# MCP-1 = assay: PBMC MCP-1 HTRF Assay; type: cell-based; conditions: LPS 200 ng/mL, 24 hours
# Protocol: The cryopreserved PBMC cells were thawed in a 37° C. water bath immediately after taking out from liquid nitrogen storage. A sterile pipette was used to transfer the content to sterile […] centrifuge tube containing […] of complete growth medium (Gibico 1640) and centrifuge at 300×g for 10 min. Supernatant was discarded, and cell pellet was resuspended in 10 mL of complete growth media in a sterile 15 mL tube. The cells were rested for 1 h at 37° C. (1×10^6 cells/mL). The cells were spinned down at 300×g for 10 minutes after 1 h. Supernatant was discard, and cell pellet was resuspended in complete growth medium, the cells number and viability were measured by AO/PI staining. In a 384-well white plate, PBMCs at 25 k cells/well (15 μl per well) were seeded with Gibico 1640 medium. The compound stock was serial diluted into […] by 3-fold dilution. 20 nL DMSO, 20 nL test compounds DMSO stock (serial diluted) were transferred in assay plate by using ECHO550, incubate for 30 min at 37° C., 5% CO2. LPS was diluted by Gibico 1640 medium.add 5 μl per well. The final concentration (200 ng/mL) was incubated for 24 hours at 37° C. with 5% CO2.
# For MCP-1 HTRF, 2.5 μl/well MCP-1 donor antibody and 2.5 μl/well MCP-1 acceptor antibody were added into 384 well plate, following by centrifuging at 190×g for 1 min and incubating at room temperature for 2 h. The plate was read on the Envision.
# BRD4 BD2 = biological target: T1, BRD4 BD2 (Homo sapiens, UniProt O60885); assay: Target Engagement Intracellular BET BRD Assay (NanoBRET); type: cell-based; conditions: read-out: BRD4 BD2 TE IC50
# T1 construct: BD2 TE; expressed in transfected cells
# Protocol: 3× Complete Substrate plus Inhibitor Solution in Assay Medium (Opti-MEM® I Reduced Serum Medium, no phenol red, and no serum) was prepared just before measuring BRET. This solution consisted of a 1:166 dilution of NanoBRET™ Nano-Glo® Substrate plus a 1:500 dilution of Extracellular NanoLuc® Inhibitor in Assay Medium. For a 96-well plate, 30 μl of NanoBRET™ Nano-Glo® Substrate, 10 μl of Extracellular NanoLuc® Inhibitor and 4,960 μl of Assay Medium were mixed to produce 5 ml of 3× Complete Substrate plus Inhibitor Solution, followed with gently mixing by inversion 5-10 times in a conical tube. (The final concentration of Extracellular NanoLuc® Inhibitor in the 3× solution was 60 μM, for a working concentration of 20 μM. Use 3× Complete Substrate plus Inhibitor Solution within 2 hours. Discard any remaining solution).
# 50 μl of 3× Complete Substrate plus Inhibitor Solution were added to each well of the 96-well plate, followed by incubation for 2-3 minutes at room temperature. Donor emission wavelength (e.g., 450 nm) and acceptor emission wavelength (e.g., 610 nm) were measured by using the GloMax® Discover System or other NanoBRET™ Assay-compatible luminometer (it is recommended measuring BRET within 10 minutes after adding NanoBRET™ Nano-Glo™ Substrate plus Extracellular NanoLuc® Inhibitor Solution. However, BRET can be measured for up to 2 hours, but there will be some loss of luminescence signal).
# To generate raw BRET ratio values, the acceptor emission value (e.g., 610 nm) was divided by the donor emission value (e.g., 450 nm) for each sample [to correct for background, the BRET ratio was substracted in the absence of tracer (average of no-tracer control samples) from the BRET ratio of each sample]. Raw BRET units were converted to milliBRET units (mBU) by multiplying each raw BRET value by 1,000. NanoBRET™ ratio equation, including optional background correction is shown below:
# BRET Ratio=[(Acceptorsample÷Donorsample)−(Acceptorno-tracer control÷Donorno-tracer control)]×1,000.
IC50 (MCP-1) [nM],IC50 (BRD4 BD2) [nM],SMILES
1.22,0.152,"Cc1cc(-c2ccc(-n3ccn(C)c3=O)c(Cl)c2)c(O)c(-c2cccc(N3CCN(C(C)(C)C)CC3)c2)n1 [Example I-2, 1-(4-(2-(3-(4-(tert-butyl)piperazin-1-yl)phenyl)-3-hydroxy-6-methylpyridin-4-yl)-2-chlorophenyl)-3-methyl-1,3-dihydro-2H-imidazol-2-one]"
4.4,4.5,"COc1ncc(-c2nc(C)cc(-c3ccc(-n4ccn(C)c4=O)c(Cl)c3)c2O)cc1N1CCN(C(C)(C)C)CC1 [Example I-3, 1-(4-(5′-(4-(tert-butyl)piperazin-1-yl)-3-hydroxy-6′-methoxy-6-methyl-[2,3′-bipyridin]-4-yl)-2-chlorophenyl)-3-methyl-1,3-dihydro-2H-imidazol-2-one]"
1.72,10.2,"[2H]C([2H])([2H])n1ccn(-c2ccc(-c3cc(C)nc(-c4cccc(N5CCN(C(C)(C)C)CC5)c4)c3O)cc2Cl)c1=O [Example I-4, 1-(4-(2-(3-(4-(tert-butyl)piperazin-1-yl)phenyl)-3-hydroxy-6-methylpyridin-4-yl)-2-chlorophenyl)-3-(methyl-d3)-1,3-dihydro-2H-imidazol-2-one]"
0.583,0.473,"Cc1cc(-c2ccc(-n3ccn(C)c3=O)c(Cl)c2)c(N)c(-c2cccc(N3CCN(C(C)(C)C)CC3)c2)n1 [Example I-5, 1-(4-(3-amino-2-(3-(4-(tert-butyl)piperazin-1-yl)phenyl)-6-methylpyridin-4-yl)-2-chlorophenyl)-3-methyl-1,3-dihydro-2H-imidazol-2-one]"
2.25,9.11,"Cc1cc(-c2ccc(-n3ccn(C)c3=O)c(Cl)c2)c(O)c(-c2cc(Cl)cc(N3CCN(C(C)(C)C)CC3)c2)n1 [Example I-6, 1-(4-(2-(3-(4-(tert-butyl)piperazin-1-yl)-5-chlorophenyl)-3-hydroxy-6-methylpyridin-4-yl)-2-chlorophenyl)-3-methyl-1,3-dihydro-2H-imidazol-2-one]"
1.79,11,"Cc1cc(-c2ccc(-n3ccn(C)c3=O)c(Cl)c2)c(O)c(-c2ccc(F)c(N3CCN(C(C)(C)C)CC3)c2)n1 [Example I-7, 1-(4-(2-(3-(4-(tert-butyl)piperazin-1-yl)-4-fluorophenyl)-3-hydroxy-6-methylpyridin-4-yl)-2-chlorophenyl)-3-methyl-1,3-dihydro-2H-imidazol-2-one]"
66.3,87.2,"Cc1cc(-c2ccc(-n3ccn(C)c3=O)c(Cl)c2)c(O)c(-c2cc(N3CCN(C(C)(C)C)CC3)n(C)c(=O)c2)n1 [Example I-9, 6′-(4-(tert-butyl)piperazin-1-yl)-4-(3-chloro-4-(3-methyl-2-oxo-2,3-dihydro-1H-imidazol-1-yl)phenyl)-3-hydroxy-1′,6-dimethyl-[2,4′-bipyridin]-2′(1′H)-one]"
1.46,7.59,"Cc1cc(-c2ccc(-n3ccn(C)c3=O)c(C)c2)c(O)c(-c2cccc(N3CCN(C(C)(C)C)CC3)c2)n1 [Example I-10, 1-(4-(2-(3-(4-(tert-butyl)piperazin-1-yl)phenyl)-3-hydroxy-6-methylpyridin-4-yl)-2-methylphenyl)-3-methyl-1,3-dihydro-2H-imidazol-2-one]"
6.34,4.22,"Cc1cc(-c2ccc(-n3ccn(C)c3=O)c(Cl)c2)c(O)c(-c2ccc(Cl)c(N3CCN(C(C)(C)C)CC3)c2)n1 [Example I-11, 1-(4-(2-(3-(4-(tert-butyl)piperazin-1-yl)-4-chlorophenyl)-3-hydroxy-6-methylpyridin-4-yl)-2-chlorophenyl)-3-methyl-1,3-dihydro-2H-imidazol-2-one]"
4.72,4.31,"Cc1cc(-c2ccc(-n3ccn(C)c3=O)c(Cl)c2)c(O)c(-c2cc(F)cc(N3CCN(C(C)(C)C)CC3)c2)n1 [Example I-12, 1-(4-(2-(3-(4-(tert-butyl)piperazin-1-yl)-5-fluorophenyl)-3-hydroxy-6-methylpyridin-4-yl)-2-chlorophenyl)-3-methyl-1,3-dihydro-2H-imidazol-2-one]"
16.7,83.6,"Cn1ccn(-c2ccc(-c3cc(F)nc(-c4cccc(N5CCN(C(C)(C)C)CC5)c4)c3O)cc2Cl)c1=O [Example I-13, 1-(4-(2-(3-(4-(tert-butyl)piperazin-1-yl)phenyl)-6-fluoro-3-hydroxypyridin-4-yl)-2-chlorophenyl)-3-methyl-1,3-dihydro-2H-imidazol-2-one]"
21.1,68.5,"Cn1ccn(-c2ccc(-c3ccnc(-c4cccc(N5CCN(C(C)(C)C)CC5)c4)c3O)cc2Cl)c1=O [Example I-14, 1-(4-(2-(3-(4-(tert-butyl)piperazin-1-yl)phenyl)-3-hydroxypyridin-4-yl)-2-chlorophenyl)-3-methyl-1,3-dihydro-2H-imidazol-2-one]"
1.09,0.152,"COc1ncc(-c2cc(F)cc(-c3ccc(-n4ccn(C)c4=O)c(Cl)c3)c2O)cc1N1CCN(C(C)(C)C)CC1 [Example I-15, 1-(3′-(5-(4-(tert-butyl)piperazin-1-yl)-6-methoxypyridin-3-yl)-3-chloro-5′-fluoro-2′-hydroxy-[1,1′-biphenyl]-4-yl)-3-methyl-1,3-dihydro-2H-imidazol-2-one]"

SMILES,IC50 (MCP-1) [nM],IC50 (BRD4 BD2) [nM]
"Cc1cc(-c2ccc(-n3ccn(C)c3=O)c(F)c2)c(O)c(-c2cccc(N3CCN(C(C)(C)C)CC3)c2)n1 [Example I-8, 1-(4-(2-(3-(4-(tert-butyl)piperazin-1-yl)phenyl)-3-hydroxy-6-methylpyridin-4-yl)-2-fluorophenyl)-3-methyl-1,3-dihydro-2H-imidazol-2-one]",5.39,13

# — patent US20240208939A1, “TREATMENT OF AUTOIMMUNE AND INFLAMMATORY DISORDERS WITH INHIBITORS OF BET FAMILY BDII BROMODOMAIN” (POSEIDON INNOVATION 1, INC., priority 2022, published 2024)
